Measurements as given in BigSolDB 2.1.

CC(=O)Nc1ccc(O)cc1
Details	solubility (mole fraction)
in acetone, 292.95 K	0.0327
in acetone, 302.85 K	0.0411
in acetone, 311.95 K	0.0534
in acetone, 320.65 K	0.068
in ethanol, 295.15 K	0.0549
in ethanol, 305.35 K	0.0662
in ethanol, 314.15 K	0.0737
in ethanol, 322.15 K	0.0898
in ethanol, 332.95 K	0.116
in ethanol, 341.25 K	0.141
in ethanol, 350.05 K	0.18
in ethanol, 360.15 K	0.216
in isopropanol, 293.65 K	0.0415
in isopropanol, 304.05 K	0.0509
in isopropanol, 313.05 K	0.0604
in isopropanol, 320.25 K	0.0696
in isopropanol, 325.35 K	0.0787
in isopropanol, 330.25 K	0.0876
in isopropanol, 336.15 K	0.105
in isopropanol, 343.45 K	0.121
in isopropanol, 348.15 K	0.136
in isopropanol, 353.05 K	0.152
in isopropanol, 356.15 K	0.159
in methanol, 293.45 K	0.0594
in methanol, 303.55 K	0.073
in methanol, 313.95 K	0.0906
in methanol, 323.35 K	0.111
in methanol, 330.95 K	0.133
in methanol, 341.55 K	0.175
in methanol, 354.15 K	0.229
in n-butanol, 293.05 K	0.0364
in n-butanol, 302.95 K	0.0439
in n-butanol, 312.55 K	0.0526
in n-butanol, 323.05 K	0.0659
in n-butanol, 332.55 K	0.0792
in n-butanol, 343.65 K	0.099
in n-butanol, 353.15 K	0.126
in n-butanol, 362.65 K	0.152
in n-pentanol, 303.55 K	0.038
in n-pentanol, 313.85 K	0.0468
in n-pentanol, 323.65 K	0.0571
in n-pentanol, 333.65 K	0.073
in n-pentanol, 343.55 K	0.0893
in n-pentanol, 353.75 K	0.108
in n-pentanol, 361.55 K	0.129
in n-propanol, 293.05 K	0.0412
in n-propanol, 302.95 K	0.0501
in n-propanol, 312.55 K	0.061
in n-propanol, 322.55 K	0.0735
in n-propanol, 332.25 K	0.093
in n-propanol, 342.15 K	0.117
in n-propanol, 351.25 K	0.142
in n-propanol, 359.15 K	0.165
